From patent publication US20230173083A1, “ALBUMIN-BINDING PRODRUG FOR PREVENTING OR TREATING CANCER AND PHARMACEUTICAL COMPOSITION INCLUDING THE SAME” (KOREA INSTITUTE OF SCIENCE AND TECHNOLOGY, priority 2021, published 2023)
No end group written: not given here. DOX = doxorubicin

Tests used:
FIG. 16 = assay: FIG. 16
Excerpt: Table printed on a drawing sheet, FIG. 16
First reader's note: The table stands beside a plasma concentration (%) versus time plot; the AUC cells hold the value ± its error and no AUC unit is printed.

[1] = Toxicity (body weight, organ histology) in cancer animal models; assay type: in vivo, BALB/c nude mice
Description: (§1) Specifically, all animal experiments were conducted in accordance with the guidelines approved by the Institutional Animal Care and Use Committee of Korea Institute of Science and Technology (KIST). BALB/c nude mice (5.5 weeks old, 20-25 g, male) purchased from Nara Bio INC (Gyeonggi-do, Korea) were used as animal models. 1×10^7 MDA-MB-231 cells were inoculated into the left thigh of each of the mice (n=6) to construct establish a cancer animal model. 5 weeks after inoculation, experiments were conducted when cancer volumes were 250-300 mm^3.
(§2) Changes in body weight and cancer tissue volume of each group were measured and survivals were analyzed every two days from immediately after injection (day 0). The cancer tissue volume (V; mm^3) was calculated as 0.53 × largest diameter × (smallest diameter)^2. After 20 days, each group was euthanized. Major organs (liver, lung, spleen, kidney, and heart) and cancer tissues were excised and sliced into 10 µm thick sections for histological assays.
(§3) Specifically, the tissues were fixed with 10% formalin, embedded in paraffin, and sectioned to a thickness of 10 µm. The tissue sections were stained with H&E, terminal deoxynucleotidyl transferase dUTP nick-end labeling (TUNEL), and 4,6-diamidino-2-phenylindole (DAPI, Sigma-Aldrich). Structural changes and toxicities in the tissue sections were evaluated using a ZEISS light microscope or fluorescence microscope.
(§4) Significance was indicated by *P < 0.05, **P < 0.01, ***P < 0.001.

HSA = HSA (Homo sapiens, UniProt P02768); assay: Formation of albumin-prodrug conjugate with HSA (SDS-PAGE, MALDI-TOF, RP-HPLC); assay type: binding; details: for formation of conjugate with HSA (SDS-PAGE band shift to 50-75 kDa): 1% HSA in PBS
Description: (§5) To this end, a PBS solution (1 ml) containing 1% albumin (HSA, MSA or BSA) or 1% blocked albumin (blocked HSA, MSA or BSA) was added to 1 mg of the prodrug (Al-ProD) synthesized in Example 1 and incubated at room temperature for various times (0 h, 5 min, and 1 h). After completion of the incubation, samples were analyzed via SDS-PAGE and MALDI-TOF mass spectrometry.
(§6) τ-maleimido butyric acid was added to 1% albumin (HSA, MSA or BSA) for 1 h to block the thiol group of the albumin. In the “Blocking” row in the table of FIG. 5, the plus signs (+) represent the use of blocked albumin.

[2] = Pharmacokinetics after intravenous administration to cancer animal models; assay type: in vivo, BALB/c nude mice
Description: as §1, with “All” for “Specifically, all”
(§7) After administration of the drugs, noninvasive near-infrared fluorescence (NIRF) imaging data were obtained using an in vivo fluorescence imaging system (IVIS Luminar III) to assess the in vivo tumor accumulation of the prodrug (Al-ProD). The areas under the curves of the time-concentration curves (AUCs) corresponding to the near-infrared data were calculated using Origin 2020 software.
as §4

[3] = system: MDA-MB-231 cancer tissues; assay: Tumor accumulation by NIRF imaging and CLSM in cancer animal models; assay type: in vivo, BALB/c nude mice
Description: as §1, with “All” for “Specifically, all”
as §7
Animal models were sacrificed 12 h after injection of the drugs and organs (liver, lung, spleen, kidney, and heart) and cancer tissues were excised therefrom. The amounts of the drugs remaining in the major organs and cancer tissues were calculated via fluorescence imaging using IVIS Luminar III. The fluorescence intensities were quantified using the Living Image software (PerkinElmer, USA) and plotted.
The organs and cancer tissues excised from the animal models were sliced into 10 µm thick sections and treated with DAPI solution for 10 min to stain the cell nuclei blue. The fluorescence of DOX or DAPI from the sections was observed using a confocal laser scanning microscope (CLSM).
as §4

MSA = MSA (Mus musculus, UniProt P07724); assay: Formation of albumin-prodrug conjugate with MSA (SDS-PAGE); assay type: binding; details: 1 h; for formation of conjugate with MSA (SDS-PAGE band shift to 50-75 kDa): 1% MSA in PBS, room temperature
Description: as §5, §6

BSA = BSA (Bos taurus, UniProt P02769); assay: Formation of albumin-prodrug conjugate with BSA (SDS-PAGE); assay type: binding, bovine; details: 1 h; for formation of conjugate with BSA (SDS-PAGE band shift to 50-75 kDa): 1% BSA in PBS, room temperature
Description: as §5, §6

[4] = system: MDA-MB-231 cancer tissues; assay: Anticancer efficacy in MDA-MB-231 cancer animal models; assay type: in vivo, BALB/c nude mice; details: for survival / cancer volume: equimolar to 3 mg/kg doxorubicin, tail vein; for cancer volume: FIG. 21, day not given
Description: as §1, §2, §3, §4

[5] = system: rat cardiomyocytes (H9C2); assay: Cytotoxicity (CCK-8) in normal cells; assay type: cell-based; details: 48 h
Description: (§8) An in vitro cell experiment was conducted using breast cancer cells (MDA-MB-231) and rat cardiomyocytes (H9C2) to determine the cancer cell-specific cytotoxicity of the albumin-prodrug conjugate (Al-ProD+HSA). Specifically, cells were cultured and maintained in Dulbecco’s modified Eagle’s medium (DMEM) supplemented with 10% fetal bovine serum (FBS) and 1% penicillin/streptomycin in a humid atmosphere at 5% CO2 and 95% air and at 37° C. […]
(§9) Cancer cells (breast cancer cells (MDA-MB-231)) or normal cells (H9C2) were seeded at a density of 2×10^4/well in 96-well cell culture plates. […] Then, each well was treated with […] of CCK solution, followed by incubation for 30 min. The absorbance of each 96-well plate was analyzed using a microplate reader (VERSAmax™, Molecular Devices Corp., Sunnyvale, CA) at 450 nm.

[6] = system: rat cardiomyocytes (H9C2); assay: Intracellular behavior of DOX by CLSM in normal cells; assay type: cell-based; details: H9C2, 2 µM, 48 h
Description: (§10) 2×10^4 cancer cells (breast cancer cells (MDA-MB-231)) and normal cells (H9C2) were seeded in cell culture plates for confocal microscopy. As a control, MDA-MB-231 cells were treated and incubated with Cat-B-inhibitory siRNA for 24 h to inhibit the expression of cathepsin B (“MDA-MB-231 (+Cat-B inhibitor)”). […] Then, cells were washed with Dulbecco’s phosphate buffered saline (DPBS) to remove residual drug. Cells were treated with a cell fixative for 15 min and nuclei were stained blue by treatment with a DAPI solution for 10 min.

[7] = system: breast cancer cells (MDA-MB-231); assay: Cytotoxicity (CCK-8) in breast cancer cells; assay type: cell-based; details: MDA-MB231 cells, 48 h
Description: as §8, §9

[8] = system: breast cancer cells (MDA-MB-231); assay: Intracellular behavior of DOX by CLSM in breast cancer cells; assay type: cell-based; details: MDA-MB-231, 2 µM, 48 h
Description: as §10

[9] = equimolar to 3 mg/kg doxorubicin, tail vein

Sequence of MSA (P07724 25-608): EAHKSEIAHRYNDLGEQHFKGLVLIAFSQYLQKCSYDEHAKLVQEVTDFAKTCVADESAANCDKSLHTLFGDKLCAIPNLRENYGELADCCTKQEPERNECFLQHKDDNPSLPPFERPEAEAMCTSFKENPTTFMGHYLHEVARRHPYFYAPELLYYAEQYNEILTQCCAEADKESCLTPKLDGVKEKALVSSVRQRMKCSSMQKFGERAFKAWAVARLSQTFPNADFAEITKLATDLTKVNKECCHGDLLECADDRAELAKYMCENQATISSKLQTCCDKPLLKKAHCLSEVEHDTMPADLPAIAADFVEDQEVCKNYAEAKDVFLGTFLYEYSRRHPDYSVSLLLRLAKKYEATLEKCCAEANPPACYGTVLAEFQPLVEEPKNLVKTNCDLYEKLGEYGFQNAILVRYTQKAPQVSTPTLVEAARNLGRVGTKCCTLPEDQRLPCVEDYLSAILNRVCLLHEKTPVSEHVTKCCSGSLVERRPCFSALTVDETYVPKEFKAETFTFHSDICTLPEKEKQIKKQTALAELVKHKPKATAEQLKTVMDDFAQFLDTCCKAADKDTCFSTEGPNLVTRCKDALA
Sequence of BSA (P02769 25-607): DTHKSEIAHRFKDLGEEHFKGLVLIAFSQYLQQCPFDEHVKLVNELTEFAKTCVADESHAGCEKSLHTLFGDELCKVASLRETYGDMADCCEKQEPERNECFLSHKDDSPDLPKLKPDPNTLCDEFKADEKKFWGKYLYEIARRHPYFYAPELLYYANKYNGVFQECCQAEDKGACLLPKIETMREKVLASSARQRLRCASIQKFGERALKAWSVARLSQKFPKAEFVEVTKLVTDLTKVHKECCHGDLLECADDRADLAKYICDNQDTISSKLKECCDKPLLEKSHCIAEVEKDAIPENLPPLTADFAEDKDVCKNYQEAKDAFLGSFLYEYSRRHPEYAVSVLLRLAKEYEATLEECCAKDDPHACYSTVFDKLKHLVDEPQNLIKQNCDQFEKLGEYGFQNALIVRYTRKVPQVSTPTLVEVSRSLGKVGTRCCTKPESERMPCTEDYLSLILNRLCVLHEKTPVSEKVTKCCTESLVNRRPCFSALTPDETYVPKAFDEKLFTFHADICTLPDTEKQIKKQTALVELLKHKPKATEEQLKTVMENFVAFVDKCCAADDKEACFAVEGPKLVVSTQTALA

COc1cccc2c1C(=O)c1c(O)c3c(c(O)c1C2=O)C[C@@](O)(C(=O)CO)C[C@@H]3O[C@H]1C[C@H](N)[C@H](O)[C@H](C)O1 [Free DOX]
T1/2 (FIG. 16): 0.25 h

COc1cccc2c1C(=O)c1c(O)c3c(c(O)c1C2=O)CC(O)(C(=O)CO)CC3OC1CC(NC(=O)CNC(=O)C(CCCNC(=N)N)NC(=O)C(CCCNC(=N)N)NC(=O)C(Cc2ccccc2)NC(=O)CCOCCOCCNC(=O)CCN2C(=O)C=CC2=O)C(O)C(C)O1 (stereo not drawn) [Al-ProD]
T1/2 (FIG. 16): 3.1 h
H&E staining of normal tissues (heart, lung, liver, kidney, and spleen) ([1]; day 20): no significant damage
change in body weight [1, 9]: no significant changes
formation of conjugate with HSA (SDS-PAGE band shift to 50-75 kDa) (HSA; room temperature, 1 h): formed a conjugate with each albumin
time to completion of conjugate formation with HSA (HSA; RP-HPLC, room temperature): ≤ 5 min
conjugate formation with thiol-blocked HSA (HSA; RP-HPLC, up to 60 min): not formed for 60 min
formation of conjugate with blocked HSA (SDS-PAGE) (HSA; thiol group of albumin blocked, 1 h): failed to form a conjugate with the blocked albumin
extension of in vivo half-life ([2]; by binding to albumin in vivo): at least 3 times
time remained in vivo [2, 9]: 50 to 150 h
half-life ([2]; male, BALB/c nude, mouse, in vivo, 3 mg/kg, read-out: half-life (T½ (h))): ≥ 3 h
extension of in vivo residence time compared to the simple anticancer drug ([2]; vs free DOX): at least 12 times
increase of area under the curve (AUC) compared to free DOX ([2]; vs free DOX 3 mg/kg): 7 fold
accumulation / retention in cancer tissues (NIRF imaging) ([3]; 0-72 h): a considerable quantity of DOX was retained in cancer tissues even after 72 h
fluorescence from cancer tissues relative to free DOX group (NIRF in vivo) ([3]; 0-72 h after intravenous administration): 3.33-4.08 fold
DOX in excised cancer tissue sections (CLSM) ([3]; DAPI-stained sections): strong DOX fluorescence from cancer tissues
DOX fluorescence from excised cancer tissues relative to free DOX group ([3]; ex vivo, 12 h after intravenous administration): 3.41-4.92 fold
formation of conjugate with MSA (SDS-PAGE band shift to 50-75 kDa) (MSA): formed a conjugate with each albumin
formation of conjugate with blocked MSA (SDS-PAGE) (MSA; thiol group of albumin blocked): failed to form a conjugate with the blocked albumin
formation of conjugate with BSA (SDS-PAGE band shift to 50-75 kDa) (BSA): formed a conjugate with each albumin
formation of conjugate with blocked BSA (SDS-PAGE) (BSA; thiol group of albumin blocked): failed to form a conjugate with the blocked albumin
H&E and TUNEL staining of cancer tissues ([4]; day 20): induced significant damage to and apoptosis of cancer tissues
survival [4]: over 25 days
cancer volume [4]: 347.42 ± 25.9 mm^3

COc1cccc2c1C(=O)c1c(O)c3c(c(O)c1C2=O)C[C@@](O)(C(=O)CO)C[C@@H]3O[C@H]1C[C@H](N)[C@H](O)[C@H](C)O1 [free DOX, doxorubicin, reference compound]
cytotoxicity [5]: significant cytotoxicities
H&E staining of normal tissues (heart, lung, liver, kidney, and spleen) ([1]; mouse, in vivo): significant structural abnormalities were observed in all tissues
DOX in excised cancer tissue sections (CLSM) ([3]; mouse, in vivo): a very small quantity
intracellular location of DOX fluorescence [6]: penetrated the nuclei of both cancer cells and normal cells
cytotoxicity [7]: significant cytotoxicities
intracellular location of DOX fluorescence [8]: penetrated the nuclei of both cancer cells and normal cells
day on which more than half of the animals had died ([4]; death from systemic toxicity): 15 days
survival [4]: ≤ 18 days
cancer volume [4]: 580.25 ± 139.92 mm^3

FRRG(SEQ ID NO: 1)-DOX (FRRG-{DOX}) [reference compound]
formation of conjugate with HSA (SDS-PAGE band shift to 50-75 kDa) (HSA; room temperature, 1 h): did not form conjugates with any albumin
formation of conjugate with MSA (SDS-PAGE band shift to 50-75 kDa) (MSA): did not form conjugates with any albumin
formation of conjugate with BSA (SDS-PAGE band shift to 50-75 kDa) (BSA): did not form conjugates with any albumin
